Measured values published in article PMC4266920, “Exploring the correlation between the sequence composition of the nucleotide binding G5 loop of the FeoB GTPase domain (NFeoB) and intrinsic rate of GDP release” (Bioscience Reports, 2014).

Key:
Assay type in all cases: binding
[1] = target: T1, EcNFeoB (GTPase domain of Escherichia coli FeoB) (Escherichia coli, UniProt P33650, T151A); experiment: isothermal titration calorimetry, one-site model; conditions: read-out: Kd^** (μM) GDP
T1 construct: soluble N-terminal GTPase domain, residues 1-270; GST fusion (pGEX-4T-1) in E. coli BL21(DE3), GST removed by thrombin, size exclusion; an alternate S150A-TEV construct (TEV-cleaved) was also made
T1 sequence (P33650 1-270 T151A): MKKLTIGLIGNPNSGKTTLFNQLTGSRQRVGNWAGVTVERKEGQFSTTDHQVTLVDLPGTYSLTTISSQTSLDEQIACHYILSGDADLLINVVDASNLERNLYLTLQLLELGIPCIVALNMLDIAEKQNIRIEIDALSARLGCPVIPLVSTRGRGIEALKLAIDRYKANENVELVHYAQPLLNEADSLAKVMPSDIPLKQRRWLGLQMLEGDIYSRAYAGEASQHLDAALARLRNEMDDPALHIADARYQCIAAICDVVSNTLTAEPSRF
From the text: (§1) isothermal titration calorimetry, one-site model on EcNFeoB (GTPase domain of Escherichia coli FeoB)

[2] = target: T2, EcNFeoB (GTPase domain of Escherichia coli FeoB) (Escherichia coli, UniProt P33650, G153A); experiment: isothermal titration calorimetry, one-site model; conditions: read-out: Kd^** (μM) GDP
T2 construct: soluble N-terminal GTPase domain, residues 1-270; GST fusion (pGEX-4T-1) in E. coli BL21(DE3), GST removed by thrombin, size exclusion; an alternate S150A-TEV construct (TEV-cleaved) was also made
T2 sequence (P33650 1-270 G153A): T1 sequence (P33650 1-270 T151A)
From the text: as §1

[3] = target: T3, EcNFeoB (GTPase domain of Escherichia coli FeoB) (Escherichia coli, UniProt P33650, R154A); experiment: isothermal titration calorimetry, one-site model; conditions: read-out: Kd^** (μM) GDP
T3 construct: soluble N-terminal GTPase domain, residues 1-270; GST fusion (pGEX-4T-1) in E. coli BL21(DE3), GST removed by thrombin, size exclusion; an alternate S150A-TEV construct (TEV-cleaved) was also made
T3 sequence (P33650 1-270 R154A): T1 sequence (P33650 1-270 T151A)
From the text: as §1

[4] = target: T4, EcNFeoB (GTPase domain of Escherichia coli FeoB) (Escherichia coli, UniProt P33650, R152A); experiment: isothermal titration calorimetry, one-site model; conditions: read-out: Kd^** (μM) GDP
T4 construct: soluble N-terminal GTPase domain, residues 1-270; GST fusion (pGEX-4T-1) in E. coli BL21(DE3), GST removed by thrombin, size exclusion; an alternate S150A-TEV construct (TEV-cleaved) was also made
T4 sequence (P33650 1-270 R152A): T1 sequence (P33650 1-270 T151A)
From the text: as §1

[5] = target: T5, EcNFeoB (GTPase domain of Escherichia coli FeoB) (Escherichia coli, UniProt P33650, S150A); experiment: isothermal titration calorimetry, one-site model; conditions: read-out: Kd^** (μM) GDP
T5 construct: soluble N-terminal GTPase domain, residues 1-270; GST fusion (pGEX-4T-1) in E. coli BL21(DE3), GST removed by thrombin, size exclusion; an alternate S150A-TEV construct (TEV-cleaved) was also made
T5 sequence (P33650 1-270 S150A): T1 sequence (P33650 1-270 T151A)
From the text: as §1

[6] = target: T1, EcNFeoB (GTPase domain of Escherichia coli FeoB); experiment: stopped-flow fluorescence, koff/kon from kobs versus protein concentration; conditions: 20 mM Tris pH 8.0, 100 mM NaCl, 100 mM MgCl2, 20 °C; labelled compound (mant-GMPPNP; table heading prints GMPPNP)
From the text: (§2) stopped-flow fluorescence, koff/kon from kobs versus protein concentration on EcNFeoB (GTPase domain of Escherichia coli FeoB)

[7] = target: T2, EcNFeoB (GTPase domain of Escherichia coli FeoB); experiment: as above; conditions: 20 mM Tris pH 8.0, 100 mM NaCl, 100 mM MgCl2, 20 °C; labelled compound (mant-GMPPNP; table heading prints GMPPNP)
From the text: as §2

[8] = target: T3, EcNFeoB (GTPase domain of Escherichia coli FeoB); experiment: as above; conditions: 20 mM Tris pH 8.0, 100 mM NaCl, 100 mM MgCl2, 20 °C; labelled compound (mant-GMPPNP; table heading prints GMPPNP)
From the text: as §2

[9] = target: T4, EcNFeoB (GTPase domain of Escherichia coli FeoB); experiment: as above; conditions: 20 mM Tris pH 8.0, 100 mM NaCl, 100 mM MgCl2, 20 °C; labelled compound (mant-GMPPNP; table heading prints GMPPNP)
From the text: as §2

With `Nc1nc2c(ncn2[C@@H]2O[C@H](COP(=O)(O)OP(=O)(O)O)[C@@H](O)[C@H]2O)c(=O)[nH]1` [GDP] as the compound, how does the Kd [1] read?
The Kd was 33 ± 4 µM.

What about the Kd [2] of the same compound?
Its Kd is 11 ± 2 µM.

And the Kd [3]?
The Kd was 9 ± 2 µM.

What about the Kd [4] of the same compound?
Its Kd is 8 ± 1 µM.

What about the Kd [5] of the same compound?
The Kd was 2 ± 0.3 µM.

How did the Kd [6] turn out when mant-GMPPNP was run?
Its Kd is 27 µM.

And the Kd [7]?
The Kd was 17 µM.

What about the Kd [8] of the same compound?
The Kd was 43 µM.

And the Kd [9]?
The Kd was 23 µM.
